Patent publication US8785630B2, “Insecticidal triazines and pyrimidines” (Vestaron Corporation, priority 2011, dated 2014)

system: beet armyworm (Spodoptera exigua); assay: Insecticidal test for beet armyworm, treated diet surface; type: in vivo; details: 100 μg/cm^2 on diet surface, first instar larvae, 32 insects per treatment, observations 24, 48 and 96 hours
Experimental: The compounds identified in Table 8 were prepared according to the previous methods and were tested against beet armyworm and corn earworm as follows:
Insecticidal Test for Beet Armyworm (Spodoptera exigua).
To prepare the test solution, the test compound was Formulated at 3499 ppm in solution as 5 mg compound/1.429 mL of 9 parts acetone: 1 part deionized H2O and vortexed to homogenize. 50 μL of the 3499 ppm (equivalent to 100 μg/cm^2 dose on diet surface area) test solution was pipetted upon the surface of 1 mL of solidified cool Southland Products Incorporated Beet Armyworm Diet (201 Stuart Island Road Lake Village, Ark. 71653) using an Eppendorf Repeater Plus with a 1 mL pipette tip. All pipetting of treatments was done in a Labconco Hood. Thirty minutes were allowed for the acetone to evaporate leaving a dose of 100 μg/cm^2 on the surface of the artificial diet. Two 24 hour old first instar Beet Armyworm (Spodoptera Exigua) larvae were placed in each well of the 128 well Bio-BA 128 Bioassay trays (CD International, Pitman, N.J., 08071, USA) using a #0 fine camel hair paint brush. Bioassay trays were sectioned into treatment groups of 8 with 16 replicates per treatment group (32 insects per treatment). Trays containing the treated diet and larvae were covered with a Bio-CV-16 cover (CD International, Pitman, N.J., 08071, USA) and then placed on a rack under florescent lights at 27° C., 20% relative humidity (RH) in the room, and 16 hr light: 8 hr dark for 96 hours. Observations were made 24, 48 and 96 hours after treatment and infestation. The number of insects dead were counted out of the 32 insects total per treatment and the results are given in a table as a percent mortality at a dose of 100 μg/cm^2. When finished, the tray was moved to the −5° C. freezer and left for 24 hr to insure mortality of the remaining S. exigua. After 24 hours, dispose of entire tray into waste bin.
Keys to the table: Mortality refers to activity against beet army worm (Spodoptera exigua) as defined above at the concentration of 100 μg/cm^2 (A=76-100% mortality, B=51-75% mortality, C=26-50% mortality and D=0-25% mortality).

SMILES	mortality at 100 µg/cm2
Fc1cccc(Cl)c1-c1cc(Nc2ccc(Cl)cc2)nc(NN=Cc2ccc(OC(F)(F)F)cc2)n1 [Example 52, 6-(2-chloro-6-fluorophenyl)-N-(4-chlorophenyl)-2-(2-(4-(trifluoromethoxy)benzylidene)hydrazinyl)pyrimidin-4-amine]	76 to 100%
Cc1ccc(C=NNc2nc(Nc3ccc(Cl)nc3)nc(-c3c(F)cccc3Cl)n2)cc1 [Example 53, 4-(2-chloro-6-fluorophenyl)-N-(6-chloropyridin-3-yl)-6-(2-(4-methylbenzylidene)hydrazinyl)-1,3,5-triazin-2-amine]	76 to 100%
COc1ccc(C=NNc2nc(Nc3ccc(Cl)nc3)nc(-c3c(F)cccc3Cl)n2)cc1 [Example 54, 4-(2-chloro-6-fluorophenyl)-N-(6-chloropyridin-3-yl)-6-(2-(4-methoxybenzylidene)hydrazinyl)-1,3,5-triazin-2-amine]	76 to 100%
Fc1cc(C=NNc2nc(Nc3ccc(Cl)nc3)nc(-c3c(F)cccc3Cl)n2)ccc1C(F)(F)F [Example 55, 4-(2-chloro-6-fluorophenyl)-N-(6-chloropyridin-3-yl)-6-(2-(3-fluoro-4-(trifluoromethyl)benzylidene)hydrazinyl)-1,3,5-triazin-2-amine]	76 to 100%
FC(F)(F)Oc1ccc(C=NNc2nc(NCc3ccc(Cl)nc3)cc(-c3ccccc3)n2)cc1 [Example 56, N-((6-chloropyridin-3-yl)methyl)-6-phenyl-2-(2-(4-(trifluoromethoxy)benzylidene)hydrazinyl)pyrimidin-4-amine]	76 to 100%
FC(F)(F)Oc1ccc(C=NNc2nc(Nc3ccc(Cl)cc3)cc(-c3ccccc3)n2)cc1 [Example 57, N-(4-chlorophenyl)-6-phenyl-2-(2-(4-(trifluoromethoxy)benzylidene)hydrazinyl)pyrimidin-4-amine]	76 to 100%
FC(F)(F)Oc1ccc(C=NNc2cc(-c3ccccc3)nc(Nc3ccc(Cl)cc3)n2)cc1 [Example 58, N-(4-chlorophenyl)-4-phenyl-6-(2-(4-(trifluoromethoxy)benzylidene)hydrazinyl)pyrimidin-2-amine]	76 to 100%
Fc1cccc(Cl)c1-c1cc(Nc2ccc(Cl)nc2)nc(NN=Cc2ccc(OC(F)(F)F)cc2)n1 [Example 59, 6-(2-chloro-6-fluorophenyl)-N-(6-chloropyridin-3-yl)-2-(2-(4-(trifluoromethoxy)benzylidene)hydrazinyl)pyrimidin-4-amine]	76 to 100%
Fc1cccc(Cl)c1-c1nc(NCc2ccc(Cl)cc2)nc(NN=Cc2ccc(OC(F)(F)F)cc2)n1 [Example 60, 4-(2-chloro-6-fluorophenyl)-N-(4-chlorobenzyl)-6-(2-(4-(trifluoromethoxy)benzylidene)hydrazinyl)-1,3,5-triazin-2-amine]	76 to 100%
FC(F)(F)Oc1ccc(C=NNc2nc(NCc3ccc(Cl)cc3)cc(-c3ccccc3)n2)cc1 [Example 61, N-(4-chlorobenzyl)-6-phenyl-2-(2-(4-(trifluoromethoxy)benzylidene)hydrazinyl)pyrimidin-4-amine]	76 to 100%
